In paper PMC8348780, “Preparation and Evaluation of Novel Folate Isonitrile ^99mTc Complexes as Potential Tumor Imaging Agents to Target Folate Receptors” (Molecules, 2021):
Blank lines part the entries; values can stand above or below the molecule they belong to.

Tests used:
[1] = Stability in mouse serum at 37 °C (RCP by radio-HPLC); format: in vitro ADME; conditions: 4 h
Experimental: (§1) The complexes were determined by ITLC/SG of the ACD system and radio-HPLC. The ITLC/SG trip was cut into 10 equal parts, and radioactive counting of ITLC strips was determined by a γ-counter. ITLC results of both complexes were as follows: in ACD solution, [^99mTc]Tc-CN5FA and [^99mTc]Tc-CNPFA stayed at the origin (Rf = 0–0.1), while ^99mTcO4^− (Rf = 0.9–1.0) and ^99mTcO2·nH2O (Rf = 0.8–1.0) were moved to the front. Radio-HPLC was analyzed by a mobile phase system consisting of 0.1% TFA water (solvent A) and 0.1% TFA acetonitrile (solvent B) with a gradient of 0−2 min 10% B, 2−5 min 10%−90% B, 10−20 min 90% B, and 20−25 min 90%−10% B (system B) at a flow rate of 1 mL/min. All experiments were performed in triplicate.
(§2) The stability of [^99mTc]Tc-CN5FA and [^99mTc]Tc-CNPFA in vitro was evaluated by measuring the RCP of the complexes. Stability in saline was achieved by holding the solution at room temperature for 4 h. Stability in the serum was achieved by mixing 100 μL of [^99mTc]Tc-CN5FA or [^99mTc]Tc-CNPFA with 200 μL of mouse serum at 37 °C for 4 h. After precipitation using acetonitrile, centrifugation, and concentration, the solutions were analyzed by radio-HPLC.

[2] = Partition coefficient, 1-octanol / phosphate buffer pH 7.4; format: physicochemical; conditions: 1-octanol / phosphate buffer 0.025 M
Experimental: The partition coefficient was measured as follows: 1.9 mL of phosphate buffer solution (0.025 M, pH 7.4), 2.0 mL of 1-octanol, and 0.1 mL of ^99mTc-CN5FA or ^99mTc-CNPFA solution were added to the centrifuge tube, and the sample was swirled for 5 min and centrifuged for 5 min (3000 r/min). Then, the radioactivity counts of the two phases were measured by taking 0.1 mL from the organic phase and the water phase. The partition coefficient P was calculated. The final partition coefficient was expressed as log P ± SD.

[3] = tested on: KB tumor-bearing mice; experiment: Biodistribution study in KB tumor-bearing mice; format: in vivo, BALB/c nude mice; conditions: for Tumor uptake: KB tumor
Experimental: The biodistribution experiments were divided into normal groups and inhibition groups (n = 3), in which the inhibition group was injected with inhibitor (about 4 × 10^4 µg/kg) 30 min in advance. The KB tumor-bearing mice were decapitated 30 and 120 min after the tail vein injection of 0.1 mL labeled solution (about 7.4 × 10^4 Bq). The heart, liver, lung, kidney, spleen, stomach, bone, muscle, intestine, tumor, blood, and other related tissues and organs were wiped clean and weighed, and the radioactivity count was measured. Each tissue per gram of injection dose (%ID/g) was calculated.

[4] = molecular target: T1, folate receptor (KB cells) (Homo sapiens, UniProt P15328); experiment: In vitro competitive binding with KB cells; conditions: 37 °C, 2 h, competitive binding with inhibitor
T1 construct: endogenous in cells; host or cells: KB cells
Experimental: KB cells were cultured with FFRPMI 1640 medium 24 h in advance on a 48-well plate with 5 × 10^4 cells per well. The labeling solution was diluted to 5 μCi/mL with the same medium after growing, and the inhibitor was prepared at different concentrations. The 48-well plates were divided into eight groups, and each group was incubated with 100 μL of inhibitor solution, 100 μL of diluted labeled solution (5 μCi/mL), and 200 μL of medium at 37 °C for 2 h.
After removing the cell plate from the incubator, the medium was removed, and the cells were washed with PBS (0.1 M, pH 7.4). The washed cells were lysed with NaOH (1 M) for 5 min. Pyrolysates were collected in the hoses, and the radioactivity count of each hose was measured by a γ-counter. The data were analyzed with GraphPad Prism 5.0 and nonlinearly fit to the log IC50 ± SD value.

[5] = Stability in saline / radiolabeling solution at room temperature (RCP by radio-HPLC); format: physicochemical; conditions: 4 h
Experimental: as §1, §2

[6] = tested on: KB tumor-bearing mice; experiment: SPECT/CT imaging study in KB tumor-bearing mice; format: in vivo, BALB/c nude mice; conditions: 2 h post injection, about 18.5 MBq i.v.
Experimental: The SPECT/CT imaging experiments were also divided into a normal group and an inhibition group (n = 3). The labeled solution (about 18.5 MBq) was injected into the tail vein of nude mice bearing KB tumor. The inhibition group was injected with 100 µg FA (about 4 × 10^4 µg/kg) 30 min in advance. After 2 h, the SPECT/CT scan was performed in anesthetized mice by using 1.5% isoflurane. The SPECT acquisition (peak value 140 keV, 20% width, 90° rotation, MMP 919 Collimator) was performed after 4 min of CT scanning (512 views, 2 × 2 binding, 75 kV, exposure time 230 ms). SPECT/CT images were made using HiSPECT software and vivoquant 2.5 software.

[7] = Solubility of the ligand in the labeling solution; format: physicochemical; conditions: labeling solution under weak acid
[8] = 2 h p.i., block: FA about 4 × 10^4 µg/kg 30 min in advance

T1 sequence (P15328 25-257): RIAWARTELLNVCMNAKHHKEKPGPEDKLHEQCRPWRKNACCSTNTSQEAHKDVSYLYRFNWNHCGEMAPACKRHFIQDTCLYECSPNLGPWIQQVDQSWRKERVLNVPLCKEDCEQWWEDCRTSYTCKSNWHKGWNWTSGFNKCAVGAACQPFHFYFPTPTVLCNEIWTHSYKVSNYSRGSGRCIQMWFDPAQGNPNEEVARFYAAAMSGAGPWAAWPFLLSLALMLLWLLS

RCP after incubation [1]: more than 95%
log P [2]: −1.92 ± 0.15
T/B (tumor/blood ratio) ([3]; 0.5 h p.i.): 1.28
T/M (tumor/muscle ratio) ([3]; 0.5 h p.i.): 1.76
Blood uptake ([3]; 0.5 h p.i., i.v., n = 3): 2.36 ± 0.10 %ID/g
Bone uptake ([3]; 0.5 h p.i., i.v., n = 3): 1.03 ± 0.09 %ID/g
Heart uptake ([3]; 0.5 h p.i., i.v., n = 3): 2.60 ± 0.16 %ID/g
Intestines uptake ([3]; 0.5 h p.i., i.v., n = 3): 2.35 ± 0.79 %ID/g
Kidney uptake ([3]; 0.5 h p.i., i.v., n = 3): 47.20 ± 2.99 %ID/g
Liver uptake ([3]; 0.5 h p.i., i.v., n = 3): 13.91 ± 1.27 %ID/g
Lung uptake ([3]; 0.5 h p.i., i.v., n = 3): 2.88 ± 0.09 %ID/g
Muscle uptake ([3]; 0.5 h p.i., i.v., n = 3): 1.72 ± 0.10 %ID/g
Spleen uptake ([3]; 0.5 h p.i., i.v., n = 3): 3.07 ± 0.03 %ID/g
Stomach uptake ([3]; 0.5 h p.i., i.v., n = 3): 2.17 ± 0.70 %ID/g
Thyroid uptake ([3]; 0.5 h p.i., i.v., n = 3): 0.05 ± 0.00 %ID
T/M (tumor/muscle ratio) ([3]; 2 h p.i.): 1.91
Blood uptake [3, 8]: 1.05 ± 0.08 %ID/g
Bone uptake [3, 8]: 1.02 ± 0.18 %ID/g
Heart uptake [3, 8]: 0.84 ± 0.05 %ID/g
Intestines uptake [3, 8]: 1.39 ± 0.15 %ID/g
Kidney uptake [3, 8]: 35.40 ± 4.08 %ID/g
Liver uptake [3, 8]: 10.22 ± 0.43 %ID/g
Lung uptake [3, 8]: 2.27 ± 0.16 %ID/g
Muscle uptake [3, 8]: 0.61 ± 0.10 %ID/g
Spleen uptake [3, 8]: 4.52 ± 0.38 %ID/g
Stomach uptake [3, 8]: 1.70 ± 0.16 %ID/g
Thyroid uptake [3, 8]: 0.03 ± 0.00 %ID
Blood uptake ([3]; 2 h p.i., i.v., n = 3): 1.08 ± 0.03 %ID/g
Bone uptake ([3]; 2 h p.i., i.v., n = 3): 0.87 ± 0.16 %ID/g
Heart uptake ([3]; 2 h p.i., i.v., n = 3): 2.29 ± 0.26 %ID/g
Intestines uptake ([3]; 2 h p.i., i.v., n = 3): 1.38 ± 0.15 %ID/g
Kidney uptake ([3]; 2 h p.i., i.v., n = 3): 51.92 ± 3.10 %ID/g
Liver uptake ([3]; 2 h p.i., i.v., n = 3): 11.88 ± 1.22 %ID/g
Lung uptake ([3]; 2 h p.i., i.v., n = 3): 2.78 ± 0.57 %ID/g
Muscle uptake ([3]; 2 h p.i., i.v., n = 3): 1.27 ± 0.03 %ID/g
Spleen uptake ([3]; 2 h p.i., i.v., n = 3): 3.08 ± 0.42 %ID/g
Stomach uptake ([3]; 2 h p.i., i.v., n = 3): 2.00 ± 0.33 %ID/g
Thyroid uptake ([3]; 2 h p.i., i.v., n = 3): 0.03 ± 0.01 %ID
Tumor uptake ([3]; 0.5 h p.i., i.v., n = 3): 3.03 ± 0.10 %ID/g
Tumor uptake [3, 8]: 1.53 ± 0.10 %ID/g
Tumor uptake ([3]; 2 h p.i., i.v., n = 3): 2.42 ± 0.44 %ID/g
IC50 [4]: 37.9 ± 0.41 nM
RCP after incubation [5]: more than 95%
SMILES: [99Tc+].[C-]#[N+]CCCCCC(=O)NCCNC(=O)CC[C@H](NC(=O)c1ccc(NCc2cnc3nc(N)[nH]c(=O)c3n2)cc1)C(=O)O.[C-]#[N+]CCCCCC(=O)NCCNC(=O)CC[C@H](NC(=O)c1ccc(NCc2cnc3nc(N)[nH]c(=O)c3n2)cc1)C(=O)O.[C-]#[N+]CCCCCC(=O)NCCNC(=O)CC[C@H](NC(=O)c1ccc(NCc2cnc3nc(N)[nH]c(=O)c3n2)cc1)C(=O)O.[C-]#[N+]CCCCCC(=O)NCCNC(=O)CC[C@H](NC(=O)c1ccc(NCc2cnc3nc(N)[nH]c(=O)c3n2)cc1)C(=O)O.[C-]#[N+]CCCCCC(=O)NCCNC(=O)CC[C@H](NC(=O)c1ccc(NCc2cnc3nc(N)[nH]c(=O)c3n2)cc1)C(=O)O.[C-]#[N+]CCCCCC(=O)NCCNC(=O)CC[C@H](NC(=O)c1ccc(NCc2cnc3nc(N)[nH]c(=O)c3n2)cc1)C(=O)O [[^99mTc]Tc-CN5FA]
Visualization of tumor lesions by SPECT/CT [6]: clearly visualized

Liver uptake ([3]; 2 h p.i., labeled under weak acid condition (before the pH was changed to weakly alkaline)): 52.35 ± 1.19 %ID/g
Solubility of ligand [7]: poor
SMILES: [C-]#[N+]CCCCCC(=O)NCCNC(=O)CC[C@H](NC(=O)c1ccc(NCc2cnc3nc(N)[nH]c(=O)c3n2)cc1)C(=O)O [CN5FA, N^2-(4-(((2-Amino-4-oxo-3,4-dihydropteridin-6-yl)methyl)amino)benzoyl)-N^5-(2-(6-isocyanohexanamido)ethyl)-L-glutamine]
